# Laboratory results taken from patent US20240156832A1, “METHODS OF METABOLIZING METOPIMAZINE AND ITS SALTS” (Neurogastrx, Inc., priority 2020, published 2024).
# Entries after “also recorded” stand apart in the source; their conditions may differ.
# How the values were obtained:
# [1] = both, human, in vivo, po, 60 mg
# Description: The clinical study was conducted at Biotrial Rennes (Rennes, France), in accordance with the Declaration of Helsinki. The study (NG100-101) was a double-blind, placebo-controlled, ascending single- and multiple-dose study of the safety, tolerability, and pharmacokinetics of metopimazine administered orally to healthy adult subjects. The study protocol, informed consent form, and appropriate related documents were approved by the institutional review board, and all subjects provided written informed consent prior to participation in the study.
# In this study, sequential ascending single doses were administered to 4 cohorts of 8 participants (6 actives and 2 placebos per cohort, in cohorts 1, 2 and 3 following a randomization 6:2 and in cohort 4 with a 1:1 randomization for the two sentinel participants. In the morning, after at least 10 hours of fasting overnight, eight healthy adult subjects (male or female aged 18 to 45), were orally administered metopimazine (or a matching placebo). Cohort 1-4 received a matching placebo or ascending doses of Vogalene (metopimazine) capsules at the doses of 15 mg, 30 mg, 45 mg, or 60 mg, respectively. […] Plasma concentrations of metopimazine, metopimazine acid and metopimazine sulfoxide were quantified using LC-MS/MS methods. […]
# [2] = Incubation of MPZ in human intestine S9; assay type: in vitro ADME; conditions: human intestine S9 1 mg/mL, 2.5 μM MPZ, 60 min
# Description: Initial experiment was conducted with S9 fractions from liver and intestine to assess the role of liver and intestinal enzymes in the metabolism of MPZ. The reaction mixture contained 2.5 μM MPZ, pooled human liver or intestine S9 fraction (1 mg/mL S9 protein), 100 mM KPi buffer (pH 7.4). The reaction mixture was pre-incubated for 3-5 min at 37° C. in a humidified incubator filled with 5% CO2 followed by the addition of NADPH (1 mM) to initiate the reaction. The reaction was incubated for 0 and 60 min. The total percentage of organic solvent in incubation mixture was <0.1%. The reactions were terminated by the addition of sample mixture of acetonitrile and ethanol (90:10, v/v). The positive control substrate, 7-EC, was incubated in triplicate in an identical manner as MPZ for S9 fractions.
# [3] = system: human microsomal liver amidase; assay: Incubations with HLM for microsomal hydrolase/amidase activity; assay type: in vitro ADME; conditions: HLM, 10 μM MPZ, 60 min, pH 7.4, 8.4 and 9.4
# Description: Incubations with HLM for Microsomal Hydrolase/Amidase Activity Prior to the reaction for amidase activity, the reaction mixture containing KPi buffer (pH 7.4, 8.4, or 9.4) and HLM was pre-incubated at 50° C. for 5 minutes to inactivate CYP and FMO activities in HLM. The mixture was placed on ice to cool down. An aliquot was taken out which was considered as t=0 min incubation. Then 10 μM MPZ was added into the remaining mixture and incubated at 37° C. on an orbital shaker for 60 minutes. A parallel set of incubations was conducted with 10 μM MPZ in the presence at 2 and 16 μM, of BNPP (a known inhibitor of amidase). All reactions were in triplicate. The total percentage of organic solvent in incubation mixture was ≤0.1%. The reactions were terminated by the addition of chilled acetonitrile: methanol, 90:10, (v/v). The samples were vortex-mixed and stored at ≤−70° C. and were subjected analyzed by LC MS/MS.
Compound,Tmax [1] [h],metabolism of MPZ [2],MPZA formation as a function of pH [3]
"CS(=O)(=O)c1ccc2c(c1)N(CCCN1CCC(C(N)=O)CC1)c1ccccc1S2 [MPZ, metopimazine]",3,virtually no metabolism,–
"CS(=O)(=O)c1ccc2c(c1)N(CCCN1CCC(C(=O)O)CC1)c1ccccc1S2 [MPZA, metopimazine acid]",–,–,"faster the higher the pH; also recorded: maximal at the highest pH tested, pH 9.4; also recorded: occurs at all pHs and increases at pHs above physiologic pH"
